Results reported in patent publication US5663181A, “Naphthyridine derivatives, their methods of preparation and pharmaceutical compositions in which they are present, useful especially as antiproliferative drugs” (Laboratoires UPSA, priority 1993, dated 1997).
pIC50: −log10 of the molar value.

System: balb c 3T3 fibroblasts
Test: Inhibition of PDGF-stimulated balb c 3T3 fibroblast proliferation (3H-thymidine incorporation)
Assay type: cell-based
Conditions: Mus musculus, BALB/c3T3; ^3 H-thymidine incorporation stimulated by PDGF in balb c 3T3 fibroblasts
Experimental: Measurement of inhibition of the balb c 3T3 fibroblast proliferation induced by a growth factor […]
Inhibition of the cell proliferation induced by a growth factor (for example PDGF) is evaluated by measuring the ^3 H-thymidine incorporation into balb c 3T3 fibroblasts.
The balb c 3T3 fibroblasts are cultivated at 37° C. with 5% of CO2 up to the point of subconfluence and are then placed for 24 hours under rest conditions in a serum-impoverished medium. They are subsequently pretreated for one hour with the test molecule and then stimulated for 24 hours with a growth factor (for example PDGF). ^3 H-Thymidine is incorporated over the last 2 hours. All these steps are performed at 37° C. with 5% of CO2.
The reaction is terminated by sucking off the reaction medium, detaching the cells and then filtering the lyzed cells through glass fiber filters.
The results are expressed as the percentage inhibition of the stimulation of ^3 H-thymidine incorporation due to the action of the growth factor.

| SMILES | pIC50 |
| --- | --- |
| N#CC(=Cc1cc2cccnc2n(-c2cc(Cl)cc(Cl)c2)c1=O)c1cccnc1 [Example 78, 3-[1-(3,5-dichlorophenyl)-1,2-dihydro-2-oxo-1,8-naphthyridin-3-yl]-2-(3-pyridyl)prop-2-enenitrile] | 6.52 |
| N#CC(=Cc1cc2cccnc2n(-c2cc(Cl)cc(Cl)c2)c1=O)c1ccncc1 [Example 81, 3-[1-(3,5-dichlorophenyl)-1,2-dihydro-2-oxo-1,8-naphthyridin-3-yl]-2-(4-pyridyl)prop-2-enenitrile] | 6.70 |
